Laboratory results taken from publication PMC7967160, “Synthesis and Antiviral Evaluation of (1,4-Disubstituted-1,2,3-Triazol)-(E)-2-Methyl-but-2-Enyl Nucleoside Phosphonate Prodrugs” (Molecules, 2021).
“And” between values parts separate entries of the source, which are not always exact repeats. Equal entries are not always repeated.

Tests used:
[1] = test system: CEM cells; parameters: method as in PMID 23911854; settings: cited from earlier work
[2] = test system: human hepatitis C virus (HCV); parameters: method as in PMID 23911854; settings: at 10 μM; cited from earlier work
[3] = in vitro
[4] = test system: hepatitis B virus (HBV); assay: Anti-HBV activity of compound 6 (unpublished data); type: cell-based; settings: read-out: EC50 (HBV)
[5] = test system: SARS-CoV-2 strain BavPat1; assay: SARS-CoV-2 assay in Vero E6 cells (CellTiter-Blue); settings: 10 μM
[6] = Cytotoxicity MTS assay in HepG2 cells; type: cell-based; settings: human
Protocol: (§1) Assays were performed in human peripheral blood mononuclear (PBM) and human liver (HepG2) cells via MTS assay using the CellTiter 96® Non-Radioactive Cell Proliferation (Promega) kit as previously described^3. Cytotoxicity was expressed as the concentration of test compounds that inhibited cell proliferation by 50% (IC50) and calculated using the Chou and Talalay method.

[7] = test system: HBV; assay: HBV assay in Huh7 cells transfected with pCI_HBVpg1820, intracapsid viral DNA by real-time PCR; type: cell-based, hepatitis B virus (HBV); settings: for inhibition at 10 µM: Hepatitis B virus, Huh-7, 96 h
Protocol: In Huh7 cells: antiviral activity against HBV in cell culture was measured as previously described. Briefly, Huh7 cells were transfected with plasmid pCI_HBVpg1820 containing 1.1 unit of HBV genome under the control of a human cytomegalovirus (CMV) promoter. The drugs were stored at 1000× in DMSO at −20 °C. For each experiment, the drugs were diluted in DMEM cell culture medium (Thermo Fisher Scientific, Artenay, France) to a final concentration of 10 μM. All drugs were tested in triplicate in two independent experiments. After 4 days of culture, intracapsid viral DNA was quantified by duplex real-time PCR, using primers described elsewhere, on a LightCycler 480 II apparatus (Roche Diagnostics France, Meylan, France) using TaqMan Universal PCR Mastermix II without UNG (Thermo Fisher Scientific, Artenay, France). Cells were quantified using primers by real-time PCR, using primers HPRT1_F (5′-[…]) and HPRT1_R (5′-[…]), on a LightCycler 480 II apparatus (Roche) using a LightCycler® 480 SYBR Green I Master (Roche Diagnostics France, Meylan, France). Cycling reactions were performed with the following parameters: 5 min at 95 °C, followed by 45 cycles of 10 s at 95 °C, 15 s at 60 °C, 10 s at 72 °C. The inhibition of HBV replication (%) and cell culture viability (%) were quantified using the following formulas. Inhibition of HBV replication (%)=1− HBV DNA copy numberDrug/HBV DNA copy numberCell culture medium Cell viability (%)= HPRT1 DNA copy numberDrug/HPRT1 DNA copy numberCell culture medium

[8] = Cell culture viability in the Huh7 HBV assay (HPRT1 DNA copy number); settings: human
[9] = in vitro; type: cell-based; settings: human; PBM cells; read-out: MTS Cytotoxicity (IC50, μM) PBM
Protocol: as §1

[10] = test system: HIV-1 LAI; assay: HIV assay in human PBM cells infected with HIV-1 LAI, RT quantification; type: cell-based; settings: Human immunodeficiency virus 1, PBMC; 10 μM, PBM cells, HIV-1 LAI
Protocol: The assay was performed as described by Schinazi et al. with minor modifications. […] The supernatants were harvested, and the HIV-1 RT was quantified.

[11] = test system: HBV; assay: HBV assay in HepAD38 cells, real-time PCR for HBV DNA in supernatant; type: cell-based; settings: Hepatitis B virus, 168 h, 7 days
Protocol: In HepAD38 cells were seeded at 50,000 cells/well in collagen-coated 96-well plates. Test compounds or 2′,3′-didéoxy-3′-thiacytidin (3TC) (control) were added to HepAD38 cells to a final concentration of 10 μM.
Real-Time PCR for HBV DNA. The experiment lasted 7 days. On day 7, total DNA was purified from the supernatant using a commercially available kit (DNeasy 96 Blood & Tissue kit, Qiagen). The HBV DNA was amplified in a real-time PCR assay using a LightCycler 480 (Roche) as described elsewhere. All samples were tested in duplicate in two to three independent experiments. Analysis: The concentration of compound that inhibited HBV DNA replication by 50% (EC50) was determined by linear regression.

[12] = in vitro; settings: human
[13] = read-out: HBV % Inhibition Huh7, 10 μM, Huh7 cells, 4 days
[14] = 10 μM, Huh7 cells, 4 days, read-out: HBV % Inhibition Huh7

Row | SMILES | CC50 [1] | % of inhibition (HCV) [2] | CC50 [3] | EC50 [4] | SARS-CoV-2 % Inhibition Vero E6 [5] | IC50 [6] | HBV % Inhibition Huh7 ([7]; 10 μM, Huh7 cells, 4 days) | inhibition at 10 µM [7, 13] | viability at 4 days, 10 µM [8] | IC50 [9] | inhibition at 10 µM [10] | inhibition at 10 µM [11] | inhibition at 10 µM [7, 14] | anti-HBV activity in words ([7]; compared to entecavir (Huh7) and lamivudine (HepAd38)) | viability at 4 days, 10 µM [12]
1 | CCCc1ccc(-c2cn(C/C=C/CP(=O)(OCOC(=O)C(C)(C)C)OCOC(=O)C(C)(C)C)nn2)cc1 [Compound 5] | 55.3 µM | 95.6% and 95% | – | – | – | – | – | – | – | – | – | – | – | – | –
2 | C/C(=C\CP(=O)(OCOC(=O)OC(C)C)OCOC(=O)OC(C)C)Cn1cnc2c(O)nc(N)nc21 [Compound 6, bis(POC)-(E)-2-methyl-but-2-enylguanine] | – | – | > 100 µM | 8.5 µM | – | – | – | – | – | – | – | – | – | – | –
3 | C/C(=C\CP(=O)(OCOC(=O)OC(C)C)OCOC(=O)OC(C)C)Cn1cc(C(N)=O)nn1 [Compound 11j, [[(E)-4-(4-Carbamoyltriazol-1-yl)-3-methyl-but-2-enyl]-(isopropoxycarbonyloxymethoxy)phosphoryl]oxymethyl isopropyl carbonate] | – | – | – | – | <1% | > 100 µM | 40% | > 40% | 100% | 76.8 µM | < 1% | 31.3% | – | – | –
4 | CCCCCCCC(=O)NCc1cn(C/C(C)=C/CP(=O)(OCOC(=O)OC(C)C)OCOC(=O)OC(C)C)nn1 [Compound 11k, [[(E)-4-(4-Octanoylaminomethyltriazol-1-yl)-3-methyl-but-2-enyl]-(isopropoxycarbonyloxymethoxy)phosphoryl]oxymethyl isopropyl carbonate] | – | – | – | – | 5% | 57.3 µM | – | – | 100% | 51.5 µM | 42% | 6.1% | < 1% | – | –
5 | C/C(=C\CP(=O)(OCOC(=O)OC(C)C)OCOC(=O)OC(C)C)Cn1cc(-c2ccc([N+](=O)[O-])cc2)nn1 [Compound 11l, [[(E)-4-(4-Nitrophenyltriazol-1-yl)-3-methyl-but-2-enyl]-(isopropoxycarbonyloxymethoxy)phosphoryl]oxymethyl isopropyl carbonate] | – | – | – | – | 10% | 85.3 µM | 40% | > 40% | 100% | 23.5 µM | 38.8% | 42.6% | – | good activity | –
6 | COC(=O)c1cn(C/C(C)=C/CP(=O)(OCOC(=O)OC(C)C)OCOC(=O)OC(C)C)nn1 [Compound 11n, Methyl-1-[(E)-4-[bis(isopropoxycarbonyloxymethoxy)phosphoryl]-2-methyl-but-2-enyl]triazole-4-carboxylate] | – | – | – | – | <1% | > 100 µM | – | – | 60% | 40.9 µM | < 1% | 3.9% | 28% | – | –
7 | CCOC(=O)c1cn(C/C(C)=C/CP(=O)(OCOC(=O)OC(C)C)OCOC(=O)OC(C)C)nn1 [Compound 11o, Ethyl-1-[(E)-4-[bis(isopropoxycarbonyloxymethoxy)phosphoryl]-2-methyl-but-2-enyl]triazole-4-carboxylate] | – | – | – | – | <1% | > 100 µM | – | – | 60% | 67.5 µM | 22.4% | 41.2% | < 1% | – | –
8 | CNC(=O)c1cn(C/C(C)=C/CP(=O)(OCOC(=O)OC(C)C)OCOC(=O)OC(C)C)nn1 [Compound 11p, [[(E)-4-(4-Methylcarbamoyltriazol-1-yl)-3-methyl-but-2-enyl]-(isopropoxycarbonyloxymethoxy)phosphoryl]oxymethyl isopropyl carbonate] | – | – | – | – | <1% | > 100 µM | – | – | 54% | 78.3 µM | 36.4% | < 1% | 14% | – | –
9 | CCNC(=O)c1cn(C/C(C)=C/CP(=O)(OCOC(=O)OC(C)C)OCOC(=O)OC(C)C)nn1 [Compound 11q, [[(E)-4-[4-(Ethylcarbamoyl)triazol-1-yl]-3-methyl-but-2-enyl]-(isopropoxycarbonyloxymethoxy)phosphoryl]oxymethyl isopropyl carbonate] | – | – | – | – | <1% | > 100 µM | – | – | 90% | 80.6 µM | 31.2% | < 1% | < 1% | – | –
10 | CCCCCCCCCCCCCCCCOCCCOP(=O)(C/C=C(\C)Cn1cc(-c2ccc(CCCCC)cc2)nn1)OCOC(=O)OC(C)C (stereo not drawn) [Compound 15c, [3-Hexadecyloxypropoxy-[(E)-3-methyl-4-[4-(4-pentylphenyl)triazol-1-yl]but-2-enyl]phosphoryl]oxymethyl isopropyl carbonate] | – | – | – | – | <1% | > 100 µM | – | – | 47% | 50.5 µM | 28.2% | 28.8% | 14% | – | –
11 | CCCCCCCCCCCCCCCCOCCCOP(=O)(C/C=C(\C)Cn1cc(C(N)=O)nn1)OCOC(=O)OC(C)C (stereo not drawn) [Compound 15j, [[(E)-4-(4-Carbamoyltriazol-1-yl)-3-methyl-but-2-enyl]-(3-hexadecyloxypropoxy)phosphoryl]oxymethyl isopropyl carbonate] | – | – | – | – | <1% | 66.4 µM | – | – | 74% | 43.1 µM | 32.2% | < 1% | 62% | – | –
12 | C=C1[C@H](CO)[C@@H](O)C[C@@H]1n1cnc2c(=O)[nH]c(N)nc21 [Entecavir, reference compound] | – | – | – | – | – | – | – | – | – | – | – | – | 92% | – | 96%
